{"source": "the supplement of paper PMC10307832", "assay_in_all_cases": "relative viability (nuclei count vs DMSO), 5 days (fraction); higher = more cells survive", "key": {"AZ505 + Decitabine": {"compound": "C1CCC(CC1)N(CCNCCC2=C3C(=C(C=C2)O)NC(=O)CO3)C(=O)CCNCCC4=CC(=C(C=C4)Cl)Cl [AZ505] + Nc1ncn([C@H]2C[C@H](O)[C@@H](CO)O2)c(=O)n1 [Decitabine] (partner 2 µM)", "in_short": "(§1)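 Lung cancer cell lines were pin-tool dosed in 1536-well plates on the day after seeding, with either a lone drug or a fixed anchor-drug dose plus five library-drug doses (not always all listed) in √10 steps. Nuclei were counted on 4× images after 5 days. Relative viability is the ratio of treated-well to vehicle-well nuclei counts, with each value a median of duplicate plates.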"}, "AZ505 + Phenformin": {"compound": "C1CCC(CC1)N(CCNCCC2=C3C(=C(C=C2)O)NC(=O)CO3)C(=O)CCNCCC4=CC(=C(C=C4)Cl)Cl [AZ505] + N=C(N)NC(=N)NCCc1ccccc1 [Phenformin] (partner 250 µM)", "in_short": "as §1"}, "AZ505 + Pemetrexed": {"compound": "C1CCC(CC1)N(CCNCCC2=C3C(=C(C=C2)O)NC(=O)CO3)C(=O)CCNCCC4=CC(=C(C=C4)Cl)Cl [AZ505] + Nc1nc2[nH]cc(CCc3ccc(C(=O)N[C@@H](CCC(=O)O)C(=O)O)cc3)c2c(=O)[nH]1 [Pemetrexed] (partner 0.2 µM)", "in_short": "as §1"}, "Dactolisib + Linsitinib": {"compound": "Cn1c(=O)n(-c2ccc(C(C)(C)C#N)cc2)c2c3cc(-c4cnc5ccccc5c4)ccc3ncc21 [Dactolisib] + C[C@]1(O)C[C@@H](c2nc(-c3ccc4ccc(-c5ccccc5)nc4c3)c3c(N)nccn32)C1 [Linsitinib] (partner 1 µM)", "in_short": "as §1"}}, "data": [{"cell line": "UMC-11", "values": [{"measurement": "relative viability", "setting": "AZ505 + Decitabine; first compound 0.08 µM", "result": 0.742}, {"measurement": "relative viability", "setting": "AZ505 + Decitabine; first compound 0.253 µM", "result": 0.674}, {"measurement": "relative viability", "setting": "AZ505 + Decitabine; first compound 0.8 µM", "result": 0.53}, {"measurement": "relative viability", "setting": "AZ505 + Decitabine; first compound 2.53 µM", "result": 0.52}, {"measurement": "relative viability", "setting": "AZ505 + Decitabine; first compound 8 µM", "result": 0.666}, {"measurement": "relative viability", "setting": "AZ505 + Phenformin; first compound 0.08 µM", "result": 0.305}, {"measurement": "relative viability", "setting": "AZ505 + Phenformin; first compound 0.253 µM", "result": 0.323}, {"measurement": "relative viability", "setting": "AZ505 + Phenformin; first compound 0.8 µM", "result": 0.328}, {"measurement": "relative viability", "setting": "AZ505 + Phenformin; first compound 2.53 µM", "result": 0.328}, {"measurement": "relative viability", "setting": "AZ505 + Phenformin; first compound 8 µM", "result": 0.325}, {"measurement": "relative viability", "setting": "AZ505 + Pemetrexed; first compound 0.08 µM", "result": 0.757}, {"measurement": "relative viability", "setting": "AZ505 + Pemetrexed; first compound 0.253 µM", "result": 0.714}, {"measurement": "relative viability", "setting": "AZ505 + Pemetrexed; first compound 0.8 µM", "result": 0.705}, {"measurement": "relative viability", "setting": "AZ505 + Pemetrexed; first compound 2.53 µM", "result": 0.901}, {"measurement": "relative viability", "setting": "AZ505 + Pemetrexed; first compound 8 µM", "result": 0.894}, {"measurement": "relative viability", "setting": "Dactolisib + Linsitinib; first compound 0.002 µM", "result": 1.02}, {"measurement": "relative viability", "setting": "Dactolisib + Linsitinib; first compound 0.006325 µM", "result": 0.987}, {"measurement": "relative viability", "setting": "Dactolisib + Linsitinib; first compound 0.02 µM", "result": 0.671}, {"measurement": "relative viability", "setting": "Dactolisib + Linsitinib; first compound 0.06325 µM", "result": 0.286}, {"measurement": "relative viability", "setting": "Dactolisib + Linsitinib; first compound 0.2 µM", "result": 0.262}]}]}
